# Laboratory results: patent publication US10947196B2, “Beta adrenergic agonist and methods of using the same” (CURASEN THERAPEUTICS, INC., priority 2019, dated 2021)
# Read-outs that look alike come from different tables or passages of the source.
# Key:
# β2 adrenergic receptor = β2 adrenergic receptor (Homo sapiens (Human), UniProt P07550); assay: cAMP Gs dynamic HTRF assay, β2 expressing CHO cells; format: cell-based; details: B2-AR
# Experimental: (§1) cAMP homogeneous time-resolved fluorescence (HTRF). Compound efficacy was determined using the cAMP Gs dynamic HTRF assay (Cisbio, catalog #62AM4PEC) largely following the manufacturer's instructions, also detailed below.
# (§2) Compound preparation. […] Standard serial dilution curves were 10-point, 5-fold dilutions starting from a highest concentration of 10 μM. […] Assay plates were centrifuged at 500×g for 10 seconds. Compounds and IBMX were prepared at 2× final dose to compensate for addition of cells.
# (§3) Cell preparation. 1× stimulation buffer, washing PBS (Dulbecco's phosphate-buffered saline, −Mg −Ca; Caisson Labs, catalog #PBL01), assay PBS (Dulbecco's phosphate-buffered saline, +Mg, +Ca; Caisson Labs, catalog #PBL02) and Versene (0.02% EDTA disodium salt solution in PBS without calcium or magnesium; Caisson Labs, catalog #EDL01) were pre-warmed to 37° C. Cells expressing beta-adrenergic receptor were washed in washing PBS to remove growth medium and then released from the surface by incubating with Versene for 5-10 minutes at 37° C. Cells were harvested using assay PBS, counted manually by hemocytometer or by an automated cell counter, pelleted by centrifugation (200×g, 5 minutes) and resuspended in 37° C. 1× stimulation buffer to a final density of 1.5×10^6 cells/mL. 5 μL of the suspended cell solution (7500 cell total) were added to all wells of the 384 well assay plate, the assay plate was covered with an Axygen® plate seal (Corning PCR-SP) and incubated in a humidified 37° C. environment supplemented with 5% CO2 for 30 minutes.
# (§4) HTRF reagent addition, reading and data analysis. After 30 minutes of cell stimulation with test compound, the assay plates were centrifuged at 500×g for 10 seconds, and incubation was stopped with the addition of 5 μL cAMP-D2 acceptor, diluted 1:21 in detection and lysis buffer 2 (Cisbio 62CL2FDF) was added to all cells. Subsequently, 5 μL Anti-cAMP-Eu Donor, diluted 1:21 in detection and lysis buffer 2, was added to cells. Plates were sealed and reactions gently ‘vortexed’ at 900 rpm on a Heidolph Titramax 1000 for at least 30 minutes at room temperature. Plates were centrifuged again at 500×g for 10 seconds, and HTRF was measured using a Tecan Spark plate reader at 50 flashes per well. […] Potency estimates (EC50) were derived from the four-parameter nonlinear regression of the concentration-effect curve and an estimate of relative efficacy was determined by comparing the magnitude of the test compound HTRF signal window (min−max dose) with the signal window of the full agonist control, isoproterenol.
# β1-adrenergic receptor = β1-adrenergic receptor (Homo sapiens (Human), UniProt P08588); assay: cAMP Gs dynamic HTRF assay, β1 expressing CHO cells; format: cell-based; details: B1-AR
# Experimental: as §1, §2, §3, §4
# [1] = CHO-K1 (HitHunter), read-out: Average pEC50 [Receptor subtype: B2-AR, Cell type: CHO-K1 (HitHunter)] (converted)
# [2] = CHO-K1 (HitHunter), read-out: Average pEC50 [Receptor subtype: B1-AR, Cell type: CHO-K1 (HitHunter)] (converted)
# [3] = CHO-K cells, read-out: Average EC50 [Receptor subtype: B2-AR, Cell type: CHO-K]
# [4] = CHO-K cells, read-out: Average EC50 [Receptor subtype: B1-AR, Cell type: CHO-K]
# β2 adrenergic receptor, sequence (P07550 whole entry, species assumed): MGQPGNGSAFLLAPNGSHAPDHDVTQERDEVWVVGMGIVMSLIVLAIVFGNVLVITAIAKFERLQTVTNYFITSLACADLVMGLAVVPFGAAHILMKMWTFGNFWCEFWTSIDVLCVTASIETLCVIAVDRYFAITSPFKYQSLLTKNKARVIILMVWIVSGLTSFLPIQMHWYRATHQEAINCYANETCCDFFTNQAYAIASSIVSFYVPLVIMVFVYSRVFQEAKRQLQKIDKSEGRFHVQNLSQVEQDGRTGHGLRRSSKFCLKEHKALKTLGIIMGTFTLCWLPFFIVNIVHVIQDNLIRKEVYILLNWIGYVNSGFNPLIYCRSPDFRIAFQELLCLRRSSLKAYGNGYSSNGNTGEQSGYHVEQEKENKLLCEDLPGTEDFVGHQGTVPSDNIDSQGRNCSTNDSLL
# β1-adrenergic receptor, sequence (P08588 whole entry, species assumed): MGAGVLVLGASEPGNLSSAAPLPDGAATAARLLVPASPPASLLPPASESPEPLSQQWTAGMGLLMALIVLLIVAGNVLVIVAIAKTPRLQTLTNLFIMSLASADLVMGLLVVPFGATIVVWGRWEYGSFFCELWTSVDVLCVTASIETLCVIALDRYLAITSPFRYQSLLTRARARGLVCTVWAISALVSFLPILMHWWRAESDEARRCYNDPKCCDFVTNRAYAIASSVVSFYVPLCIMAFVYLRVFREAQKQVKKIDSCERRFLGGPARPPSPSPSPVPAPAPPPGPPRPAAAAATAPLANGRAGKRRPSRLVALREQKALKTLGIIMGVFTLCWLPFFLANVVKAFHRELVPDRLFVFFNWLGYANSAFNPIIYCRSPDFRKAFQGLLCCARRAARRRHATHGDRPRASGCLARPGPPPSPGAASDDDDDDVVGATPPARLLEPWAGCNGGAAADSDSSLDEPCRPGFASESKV
Structure (SMILES),EC50 (β2 adrenergic receptor; [1]) [nM],EC50 (β1-adrenergic receptor; [2]) [nM],EC50 (β2 adrenergic receptor; [3]) [nM],further results
CC(C)(C)NC[C@H](O)c1cccnc1-c1c[nH]nn1 [Compound 03-76],100 to 1000,100 to 1000,,
CN(C)c1ncccc1[C@@H](O)CNC(C)(C)C [Compound 03-56],> 1000,,> 1000,
C#Cc1ncccc1[C@@H](O)CNC(C)(C)C [Compound 03-75],> 1000,> 1000,,
CC(C)(C)NC[C@H](O)c1cccc(-c2cccc(F)c2)n1 [Compound 03-131],< 10,,< 10,Average pEC50 [Receptor subtype: B1-AR; Cell type: CHO-K1 (HitHunter)] (β1-adrenergic receptor; CHO-K1 (HitHunter)): B (B = 8-7); EC50 (β1-adrenergic receptor; [4]): 10 to 100 nM
COc1ccc(C[C@@H](C)NC[C@H](O)c2cnc(C)nc2C)cc1 [Compound 03-270],,,,"EC50 (β2 adrenergic receptor; Average pEC50 [Receptor subtype: B2-AR, Cell type: CHO-K1 (HitHunter)], CHO-K1 (HitHunter)): 10 to 100 nM; EC50 (β1-adrenergic receptor; Average pEC50 [Receptor subtype: B1-AR, Cell type: CHO-K1 (HitHunter)], CHO-K1 (HitHunter)): > 1000 nM"
CC(C)(C)NC[C@H](O)c1cccc(NC2CC(F)(F)C2)n1 [Compound 03-263],< 10,10 to 100,,
Cc1nc(NC2CC2)ccc1[C@@H](O)CNC(C)(C)C [Compound 03-274],10 to 100,> 1000,,
CC1(NC[C@@H](O)c2cccc(C(F)(F)F)n2)CCC1 [Compound 03-12],100 to 1000,> 1000,100 to 1000,EC50 (β1-adrenergic receptor; [4]): > 1000 nM
Cc1cccc([C@H](O)CNC(C)(C)C)n1 [Compound 03-47],> 1000,> 1000,> 1000,EC50 (β1-adrenergic receptor; [4]): > 1000 nM
CC(C)(C)NC[C@H](O)c1ccc(C#N)c(C(F)(F)F)n1 [Compound 03-30],10 to 100,100 to 1000,10 to 100,EC50 (β1-adrenergic receptor; [4]): 100 to 1000 nM
Cc1cc([C@H](O)CNC(C)(C)C)ccn1 [Compound 03-109],100 to 1000,100 to 1000,,
"Cc1cnccc1[C@@H](O)CNC(C)(C)C [Compound 03-247, (R)-2-(tert-butylamino)-1-(3-methylpyridin-4-yl)ethan-1-ol]",> 1000,> 1000,,
CC(C)(C)NC[C@@H](O)c1cccc(C2=CCCC2)n1 [Compound 03-234],10 to 100,10 to 100,,
CC(C)(C)NC[C@H](O)c1cccnc1C(F)(F)F [Compound 03-118],100 to 1000,,100 to 1000,
CC(C)(C)NC[C@@H](O)c1ccc(C#N)cn1 [Compound 03-222],> 1000,,,
CC(C)(C)NC[C@@H](O)c1ccc(C#N)c(C(F)(F)F)n1 [Compound 03-31],> 1000,,> 1000,
Cc1ccccc1-c1cccc([C@H](O)CNC(C)(C)C)n1 [Compound 03-150],,> 1000,,EC50 (β1-adrenergic receptor; [4]): > 1000 nM
CC(C)(C)NC[C@@H](O)c1cccc(NC2CCCC2)n1 [Compound 03-236],100 to 1000,,,
CC(C)(C)NC[C@H](O)c1cccc(C(=O)O)n1 [Compound 03-240],> 1000,,,
CC(C)(C)NC[C@@H](O)c1cccc(N2CCCCC2)n1 [Compound 03-138],,> 1000,,EC50 (β1-adrenergic receptor; [4]): > 1000 nM
Cc1cnc(C2CCCC2)c([C@@H](O)CNC(C)(C)C)c1 [Compound 03-77],> 1000,,,
CC(C)(C)NC[C@H](O)c1ccnc(C(F)(F)F)c1 [Compound 03-227],> 1000,,,
CCOc1cccc([C@H](O)CNC(C)(C)C)n1 [Compound 03-178],100 to 1000,,100 to 1000,
CC(C)(C)NC[C@H](O)c1cccc(-c2nnn[nH]2)n1 [Compound 03-18],,,,Average pEC50 [Receptor subtype: B1-AR; Cell type: CHO-K1 (HitHunter)] (β1-adrenergic receptor; CHO-K1 (HitHunter)): D (D < 6); EC50 (β1-adrenergic receptor; [4]): > 1000 nM

Structure (SMILES),EC50 (β2 adrenergic receptor; [1]) [nM],EC50 (β1-adrenergic receptor; [2]) [nM],EC50 (β2 adrenergic receptor; [3]) [nM],further results
CC(=O)Nc1cccc([C@@H](O)CNC(C)(C)C)n1 [Compound 03-194],> 1000,,,
CN1CCN(c2cccc([C@@H](O)CNC(C)(C)C)n2)CC1 [Compound 03-139],,,,Average pEC50 [Receptor subtype: B1-AR; Cell type: CHO-K1 (HitHunter)] (β1-adrenergic receptor; CHO-K1 (HitHunter)): D (D < 6); EC50 (β1-adrenergic receptor; [4]): > 1000 nM
CC(C)(C)NCC(O)c1cccnc1C(=O)O (centres unmarked) [Compound 03-113],> 1000,,> 1000,
CC(C)(C)NC[C@H](O)c1cccnc1C1=CCCC1 [Compound 03-62],> 1000,,,
Cn1cc(-c2cccc([C@H](O)CNC(C)(C)C)n2)cn1 [Compound 03-224],100 to 1000,,,
CC(C)(C)NC[C@H](O)c1cccnc1CC(F)(F)F [Compound 03-84],> 1000,,,
CC(C)(C)NC[C@H](O)c1ccncc1C(F)(F)F [Compound 03-242],> 1000,,,
CC(C)(C)NC[C@@H](O)c1cccc(-c2ccc(F)cc2)n1 [Compound 03-146],,100 to 1000,,EC50 (β1-adrenergic receptor; [4]): 100 to 1000 nM
CC(C)(C)NCC(O)c1cccnc1C(=O)NC(C)(C)C (centres unmarked) [Compound 03-112],> 1000,,> 1000,
Cc1cc([C@@H](O)CNC(C)(C)C)ccn1 [Compound 03-108],> 1000,,,
Cc1ncccc1[C@H](O)CNC(C)(C)C [Compound 03-116],> 1000,,> 1000,
CC(C)(C)NC[C@H](O)c1cc(C(F)(F)F)cnc1C1CCCC1 [Compound 03-78],,< 10,,
CCN(CC)c1cccc([C@@H](O)CNC(C)(C)C)n1 [Compound 03-159],,10 to 100,,EC50 (β1-adrenergic receptor; [4]): 10 to 100 nM
CCNc1ncccc1[C@@H](O)CNC(C)(C)C [Compound 03-73],> 1000,,,
CC(C)(C)NC[C@@H](O)c1cccc(-c2cccc(F)c2)n1 [Compound 03-132],,,,Average pEC50 [Receptor subtype: B1-AR; Cell type: CHO-K1 (HitHunter)] (β1-adrenergic receptor; CHO-K1 (HitHunter)): D (D < 6); EC50 (β1-adrenergic receptor; [4]): > 1000 nM
CC(C)(C)NC[C@@H](O)c1cccc(N2CC3CCCC3C2)n1 (some centres unmarked) [Compound 03-136],10 to 100,,10 to 100,
CC(C)(C)NC[C@H](O)c1cccc(-c2ccc(Cl)cc2)n1 [Compound 03-119],,,,Average pEC50 [Receptor subtype: B1-AR; Cell type: CHO-K1 (HitHunter)] (β1-adrenergic receptor; CHO-K1 (HitHunter)): C (C = <7-6); EC50 (β1-adrenergic receptor; [4]): 100 to 1000 nM
CC(C)(C)NC[C@H](O)c1cccnc1-c1cccc(F)c1 [Compound 03-61],> 1000,,> 1000,
CC(C)(C)N(O)C[C@H](O)c1cccc(C(N)=O)n1 [Compound 03-245],> 1000,,,
CC(C)(C)NC[C@H](O)c1nc(C(F)(F)F)cc2ccccc12 [Compound 03-171],,,> 1000,
CC(C)Oc1cccc([C@H](O)CNC(C)(C)C)n1 [Compound 03-180],100 to 1000,,100 to 1000,
CC(C)(C)NC[C@H](O)c1cccnc1C(C)(C)C [Compound 03-79],> 1000,,,
OC(CNC1(C(F)(F)F)CC1)c1cccc(C(F)(F)F)n1 (centres unmarked) [Compound 03-218],> 1000,,,
CC(C)(C)NC[C@@H](O)c1nccc2ccccc12 [Compound 03-187],,,> 1000,
